Patent US8258151B2, “3-aminoimidazo [1,2-A] pyridine derivatives as SGLT inhibitors” (Merck Patent GmbH, priority 2006, dated 2012)
pIC50: −log10 of the molar value.

Key:
SGLT1 = target: T1, SGLT1 (Homo sapiens, UniProt P13866); assay: SGLT1 activity measurement: 14C-AMG uptake in BHK cells transfected with SGLT1; assay type: cell-based; details: AMG 50 μM, 37° C., 90 min
T1 construct: expressed in transfected cells
T1 sequence (P13866 1-664): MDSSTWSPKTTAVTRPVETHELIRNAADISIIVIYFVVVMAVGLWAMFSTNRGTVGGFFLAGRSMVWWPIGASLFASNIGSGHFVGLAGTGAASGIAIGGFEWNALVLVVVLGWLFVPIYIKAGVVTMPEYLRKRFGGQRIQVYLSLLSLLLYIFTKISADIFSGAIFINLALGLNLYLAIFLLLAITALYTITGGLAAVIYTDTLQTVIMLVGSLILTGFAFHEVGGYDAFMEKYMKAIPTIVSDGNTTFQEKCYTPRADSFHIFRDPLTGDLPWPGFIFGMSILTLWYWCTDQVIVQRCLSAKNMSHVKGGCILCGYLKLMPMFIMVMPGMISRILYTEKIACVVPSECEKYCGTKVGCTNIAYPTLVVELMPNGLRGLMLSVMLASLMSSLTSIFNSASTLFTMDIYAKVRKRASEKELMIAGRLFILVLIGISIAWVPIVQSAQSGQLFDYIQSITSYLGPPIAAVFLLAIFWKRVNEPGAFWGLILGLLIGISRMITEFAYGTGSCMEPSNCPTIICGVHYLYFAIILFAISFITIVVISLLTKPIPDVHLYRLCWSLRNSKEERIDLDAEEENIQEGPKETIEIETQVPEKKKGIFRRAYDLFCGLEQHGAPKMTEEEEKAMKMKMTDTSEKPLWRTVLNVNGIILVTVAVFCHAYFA
How it was run: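 BHK21 cells stably transfected with human SLC5A1 were incubated with 14C-AMG (added solution at 50 μM) ± compound for 90 min at 37 °C. The buffer was 140 mM NaCl, HEPES/Tris, pH 7.4. Lysed-cell radioactivity was counted by scintillation, and non-specific uptake was measured in sodium-free sucrose buffer.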

SGLT2 = target: T2, SGLT2 (Homo sapiens, UniProt P31639); assay: SGLT2 activity measurement: 14C-AMG uptake in BHK cells transfected with SGLT2; assay type: cell-based; details: AMG 2 mM, 37° C., 90 min
T2 construct: expressed in transfected cells
T2 sequence (P31639 1-672): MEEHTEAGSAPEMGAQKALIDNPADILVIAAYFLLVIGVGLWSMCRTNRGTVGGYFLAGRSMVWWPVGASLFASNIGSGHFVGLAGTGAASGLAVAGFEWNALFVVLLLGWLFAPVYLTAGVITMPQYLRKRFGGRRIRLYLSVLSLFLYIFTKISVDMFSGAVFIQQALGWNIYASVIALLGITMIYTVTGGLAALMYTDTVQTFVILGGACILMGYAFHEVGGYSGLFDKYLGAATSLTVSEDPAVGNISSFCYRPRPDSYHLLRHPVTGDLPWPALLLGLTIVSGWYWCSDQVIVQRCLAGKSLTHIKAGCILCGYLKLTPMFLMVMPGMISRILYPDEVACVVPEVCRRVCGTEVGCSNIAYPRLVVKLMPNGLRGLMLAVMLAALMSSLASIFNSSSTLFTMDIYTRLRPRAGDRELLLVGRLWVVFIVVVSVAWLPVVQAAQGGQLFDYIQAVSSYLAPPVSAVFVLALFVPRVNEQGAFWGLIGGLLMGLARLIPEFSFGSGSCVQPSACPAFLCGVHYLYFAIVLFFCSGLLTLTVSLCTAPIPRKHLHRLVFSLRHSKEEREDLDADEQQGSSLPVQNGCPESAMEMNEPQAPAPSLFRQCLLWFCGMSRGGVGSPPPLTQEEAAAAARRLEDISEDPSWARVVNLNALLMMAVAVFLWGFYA
How it was run: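 BHK21 cells stably expressing human SGLT2 took up 14C-AMG (added as 2 mM solution) ± compound for 90 min at 37 °C in Na+-containing HEPES/Tris buffer, pH 7.4. Uptake was measured by scintillation counting after lysis. Non-specific uptake was defined in sodium-free sucrose buffer.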

Structure (SMILES)	pIC50 (SGLT1)	pIC50 (SGLT2)
COc1cc(C)c(-c2nc3ccc(F)cn3c2Nc2c(C)cccc2C)c(OCC(N)=O)c1 [Compound A204, 2-[2-(Aminocarbonylmethoxy)-4-methoxy-6-methylphenyl]-3-(2,6-dimethylphenylamino)-6-fluoroimidazo[1,2-a]pyridine]	5.00 to 6.00	6.00 to 8.00
COc1cc(C)c(-c2nc3ccc(F)cn3c2Nc2c(Br)cc(C)cc2Br)c(OCC(N)=O)c1 [Compound A239, 2-[2-(Aminocarbonylmethoxy)-4-methoxy-6-methylphenyl]-3-(2,6-dibromo-4-methylphenyl-amino)-6-fluoroimidazo[1,2-a]pyridine]	6.00 to 8.00	6.00 to 8.00
CCc1cc(OC)cc(OCC(N)=O)c1-c1nc2ccc(F)cn2c1Nc1c(C)cccc1C(F)(F)F [Compound A247, 2-[2-(Aminocarbonylmethoxy)-4-methoxy-6-ethylphenyl]-3-(2-methyl-6-trifluoromethylphenyl-amino)-6-fluoroimidazo[1,2-a]pyridine]	< 5.00	6.00 to 8.00
Cc1cc(C)c(-c2nc3ccccn3c2Nc2c(C)cccc2C)c(OCC(N)=O)c1 [Compound A168, 2-[2-(Aminocarbonylmethoxy)-4,6-dimethyl-phenyl]-3-(2,6-dimethylphenylamino)imidazo-[1,2-a]pyridine]	< 5.00	6.00 to 8.00
